PubChem BioAssay (NCI)
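Step 1: Grow cells in 96-well plates. Step 2: Expose to compound for 48 hours at 5 concentrations. Step 3: Interpolate endpoints linearly; if unreached, use highest concentration. TGI marks complete inhibition of growth.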 Where a SMILES comes first, the peptide text is derived from it. The star is where a group is joined. Ethyl(2-NMe3+) = C[N+](C)(C)CC*; Boc = CC(C)(C)OC(=O)*

Key:
Experiment in all cases: NCI-60 cell line screen, 48 h
[1] = test system: CAKI-1 renal
[2] = test system: HCC-2998 colon
[3] = test system: HCT-116 colon
[4] = test system: HT29 colon
[5] = test system: LOX IMVI melanoma
[6] = test system: MDA-MB-231 breast
[7] = test system: MDA-MB-435
[8] = test system: MOLT-4 leukemia
[9] = test system: NCI/ADR-RES ovarian
[10] = test system: OVCAR-3 ovarian
[11] = test system: OVCAR-5 ovarian
[12] = test system: SN12C renal
[13] = test system: SW-620 colon
[14] = test system: T-47D breast
[15] = test system: U251 CNS
[16] = test system: UACC-62 melanoma

Row | SMILES | TGI [1] [µM] | TGI [2] [µM] | TGI [3] [µM] | TGI [4] [µM] | TGI [5] [µM] | TGI [6] [µM] | TGI [7] [µM] | TGI [8] [µM] | TGI [9] [µM] | TGI [10] [µM] | TGI [11] [µM] | TGI [12] [µM] | TGI [13] [µM] | TGI [14] [µM] | TGI [15] [µM] | TGI [16] [µM]
1 | COc1ccc2c(c1)-c1[nH]c3ccc(OC)cc3c1CC2 | 34.8 | 31.4 | 32.4 | 24.9 | 29.8 | 35 | 40.2 | 54.4 | 24.8 | 32.9 | 28.6 | 29.3 | 49.4 | 36.6 | 39.2 | 28.6
2 | CC(C)(C)OC(=O)N1CCC2(C)CC(=O)CC=C12 (configuration not stated) | > 100 | > 100 | > 100 | > 100 | > 100 | > 100 | > 100 | > 100 | > 100 | > 100 | > 100 | > 100 | > 100 | > 100 | > 100 | > 100
3 | O=C(Cc1ccc(Cl)cc1)Nc1ccc2oc(-c3ccccc3)nc2c1 | > 100 | > 100 | > 100 | > 100 | > 100 | > 100 | > 100 | > 100 | > 100 | > 100 | > 100 | > 100 | > 100 | > 100 | > 100 | > 100
4 | COc1ccc(NC(=O)/C(=N/NC(N)=S)C2C(=O)NC(=S)NC2=O)c(OC)c1 | > 100 | > 100 | > 100 | > 100 | > 100 | > 100 | > 100 | > 100 | > 100 | > 100 | > 100 | > 100 | > 100 | > 100 | > 100 | > 100
5 | O=P1(c2ccccc2)C(c2ccccc2)=CC=C1c1ccccc1 | > 100 | 64.8 | > 100 | 50.2 | 37.8 | > 100 | 36.4 | 44 | > 100 | 89.8 | > 100 | > 100 | > 100 | > 100 | 43.8 | > 100
6 | CC(C)(C)OC(=O)NC(CCC(=O)OCc1ccccc1)C(=O)NCCCO (configuration not stated) | > 100 | > 100 | > 100 | > 100 | > 100 | > 100 | > 100 | > 100 | > 100 | > 100 | > 100 | > 100 | > 100 | > 100 | > 100 | > 100
7 | CC(NC(=O)C(Cc1ccc(OCC[N+](C)(C)C)cc1)NC(=O)OC(C)(C)C)C(=O)NC(Cc1ccccc1)C(=O)NCC(N)=O (configuration not stated) (Boc-Y(Ethyl(2-NMe3+))AFG-NH2; configuration not given here) | > 100 | 48.8 | > 100 | > 100 | > 100 | 9.1 | > 100 | > 100 | > 100 | 60.3 | 59.5 | > 100 | > 100 | > 100 | 12.8 | 71.7
8 | CC1=C(C(=O)N(C(C)C)C(C)C)CC(C(=O)N(C(C)C)C(C)C)=C(C)N1 | > 100 | > 100 | > 100 | > 100 | > 100 | > 100 | > 100 | > 100 | > 100 | > 100 | > 100 | > 100 | > 100 | > 100 | > 100 | > 100
9 | c1ccc2c(c1)cc1c3[nH]c4ccccc4c3ccn21 | > 10 | > 10 | > 10 | > 10 | > 10 | > 10 | > 10 | > 10 | > 10 | > 10 | > 10 | > 10 | > 10 | > 10 | > 10 | > 10
10 | O=[N+]([O-])c1cc2c(c([N+](=O)[O-])c1)NCc1ccccc1O2 | > 100 | > 100 | > 100 | > 100 | > 100 | > 100 | > 100 | > 100 | > 100 | > 100 | > 100 | > 100 | > 100 | > 100 | > 100 | > 100
11 | CC1(C)C/C(=N/O)c2c(nc3ccc4ccccc4c3c2-c2ccc(Cl)cc2)C1 | 26.3 | 43.8 | 24.1 | 33.5 | 26.6 | 24.4 | > 100 | 52.6 | 39.3 | 24.7 | > 100 | 22.7 | 77.9 | 34.2 | 24 | 37.1
12 | CC(C)=c1sc(=C(C)C)c2c1=NC(C)(C)N=2 | > 100 | > 100 | > 100 | > 100 | > 100 | > 100 | > 100 | > 100 | > 100 | > 100 | > 100 | > 100 | > 100 | > 100 | > 100 | > 100
